Experimental data reported in publication PMC5884652, “New antimicrobial peptide kills drug-resistant pathogens without detectable resistance” (Oncotarget, 2018).
Ends that are not written are not given here.

How the values were obtained:
[1] = assay type: in vivo; conditions: 30 min; topical, 200 μg/mL, hairless mouse skin, fluorescence microscopy
Experimental: Topical delivery of rhodamine-labeled CSP-4 was evaluated on hairless mouse skin. Male hairless mice (6 weeks old) bred by Hoshino Laboratory Animals, Inc. (Bandou-shi, Japan) were purchased from Japan SLC, Inc. (Hamamatsu, Japan). After anesthetizing 5 mice per group (3 groups) with isoflurane, rhodamine-labeled CSP-4 (200 μg/mL) was spread on the hairless mouse skin. The skin was then examined for reactions every 5 min for 30 min. Skin tissue was collected and washed once in PBS, fixed in 4% paraformaldehyde for 12 h, dehydrated in 50% and 100% ethanol (2 h each), and washed 3 times in xylene substitute (1 h/wash). Paraffin-embedded samples were cut into 4 μm-thick sections (Microtome; Thermo Scientific, Waltham, MA, USA) and examined under a fluorescence microscope (IX71; Olympus; Tokyo, Japan).
Supplementary Figure 2: Topical application of rhodamine-labeled CSP-4 to the skin of hairless mouse. Mice were anesthetized with isoflurane and immobilized. Rhodamine-labeled CSP-4 (200 μg/ml) was then applied to the skin in a topical spread.
Diffusion of the peptide into the skin was assessed after 5, 10, 15, 20, 25 and 30 min.
Supplementary Figure 3: Observation of GUVs (PE/PG) with peptides. […] Morphological changes and calcein leakage from the GUVs was monitored. GUVs were examined under an inverted fluorescence phase contrast microscope, and images were recoded using a digital CCD camera. […]

[2] = tested on: S. aureus CCARM 0027-infected hairless mice; test: Dermal infection and inflammation model; assay type: in vivo, mouse
Experimental: Male hairless mouse (aged 6 weeks, 5 mouse/group, total 7 groups) were injected intraepidermal with S. aureus CCARM 0027 (1 × 10^8 cfu/ml). The CSP-4 peptide (200, 100, 50, 25 μg/ml) was injected intraeptidermal into mice at 1 h after the S. aureus CCARM 0027 injection, samples of inflamed skin was collected after 7 days and 4-μm-thick sections were prepared as described in the preceding section. Each sample was then incubated for 30 min at 24° C with 5% bovine serum albumin, mouse anti-Toll-like receptor-2 (TLR-2) (AbFrontier, AB24192), mouse monoclonal anti-TNF-α (AbFrontier, AB1793), and mouse polyclonal anti-IL-1β (AbFrontier, AB1413). The samples were then washed with Tris-buffered saline containing Tween 20 buffer and incubated with HRP LF-SA5001-conjugated goat anti-mouse IgG, and stained with hematoxylin and eosin. The stained sections were examined under a fluorescence microscope.
Western blot analysis was performed as using changes in protein expression. Briefly, proteins extracted from the hairless mouse skin were separated for 3 h using 15% SDS-polyacrylamide gel electrophoresis and transferred to polyvinylidene fluoride membranes (Bio-Rad, Hercules, CA, USA) for 1 h at 90 V. The membranes were then incubated overnight at 4° C in 5% skim milk containing anti-GAPDH (LF-PA0018; Santa Cruz Biotechnology, Santa Cruz, CA, USA), mouse anti-TLR2 (AbFrontier, AB24192), mouse anti-NF-κB, (Santa Cruz Biotechnology, SC-71675), mouse anti-TNF-α (AbFrontier, AB1793), mouse anti-IL-1β (AbFrontier, AB1413), and mouse anti-cathelicidin (AbFrontier, AB93357). The membranes were then washed in Tris-buffered saline containing Tween 20 and incubated with the horseradish peroxidase (HRP)-conjugated secondary antibodies LF-SA5002 goat anti-rabbit IgG and LF-SA5001 goat anti-mouse IgG. The blots were developed using a Western Blot Detection kit (AbFrontier, LF-QC0103).
For scanning electron microscopy (SEM), S. aureus cells were cultured in LB medium (pH 5.5 or pH 7.4), washed 3 times with 10 mM sodium phosphate buffer, and stirred at 4000 rpm. CSP-4 was added to the cells and incubated at 25° C. After incubation, the cells were fixed in 4% glutaraldehyde for 20 min and dehydrated in 50% and then 100% ethanol (10 min each step) at 37° C. In addition, 7 days after inducing inflammation in hairless mouse skin tissue by infection with drug-resistant S. aureus CCARM 0027 strain or E. coli bacteria, samples of skin tissue were isolated, washed in PBS, fixed in 4% paraformaldehyde overnight at 4° C, and dehydrated in 50% and then 100% ethanol (2 h each step) at 37° C. Samples were then gold-coated and visualized by SEM (JSM-7100F; JEOL, Tokyo, Japan).

[3] = tested on: E. coli; test: SYTOX-Green uptake; assay type: cell-based; conditions: E. coli 2 × 10^7 cfu/mL, 1 μM SYTOX-Green, 10 mM sodium phosphate buffer, pH 5.5 and pH 7.4
[4] = tested on: S. aureus; test: SYTOX-Green uptake; assay type: cell-based; conditions: S. aureus 2 × 10^7 cfu/mL, 1 μM SYTOX-Green, 10 mM sodium phosphate buffer
Experimental: S. aureus CCARM 259237 cells were grown to the mid-log phase and suspended in 10 mM sodium phosphate buffer supplemented with 10% culture medium at pH 7.4 and 37° C, and then washed and suspended (2 × 10^7 cfu/mL) in 10 mM sodium phosphate buffer (pH 7.4) and incubated with 1 μM SYTOX-Green for 20 min in the dark. After the addition of peptides at the appropriate concentrations (1/2 MIC, MIC, 2× MIC, and/or 4× MIC), time-dependent increases in fluorescence, which is caused by the binding of the cationic dye to intracellular nucleic acids, was monitored using a Perkin-Elmer LS55 fluorometer (excitation wavelength, 485 nm; emission wavelength, 520 nm).

FLRFIGSVKHGKGHLVHHIGVAL-NH2 [CSP-4]
Depth of penetration into skin [1]: 25–40 μm
Epidermal thickness and immune cell infiltration ([2]; 200 µg/mL and 100 µg/mL, skin collected after 7 days, hematoxylin and eosin): dose-dependent decrease
TLR-2, NF-κB, TNF-α, IL-1β, and cathelicidin levels in skin ([2]; 200 μg/mL or 100 μg/mL, Western blot): concentration-dependent decreases
Dermal collagen and elastin, uninfected mice treated with peptide alone ([2]; CSP-4 alone (200 µg/mL), SEM): not damaged
Collagen and elastin damage in infected skin ([2]; SEM, 7 days after infection): dose-dependently reduced
Membrane disruption (SYTOX-Green fluorescence) [3]: dose-dependent increase in fluorescence intensity
Membrane disruption (SYTOX-Green fluorescence) [4]: dose-dependent increase in fluorescence intensity
